Data published in patent US4238491A (priority 1977, dated 1980).
Like-named read-outs stand apart in the source and are kept apart here.

Experiments:
rats [1] = test system: rats
Description: The rate were bred in individual cages under the following conditions: temperature, 23°±2° C.; relative humidity, 55±5%; free taking of solid food (CE-2, CLEA Japan, Inc.) and tap water.
Volume of the medicine solution for one administration was dicided to be 1 ml per 100 g of weight, and the dose was administered once a day, 6 times a week over 5 weeks. The control group received the same volume of 0.2% carboxymethyl cellulose solution.
After the final administration followed by 24 hours fast, the following analyses were made: Glucose (by o-toluidine-boric acid method); Total Protein (by biurett method); Blood Uria Nitrogen (diacetyl monoxime method); GOT and GPT Activities (Reitman-Frankel method); Alkaline Phosphatase Activity (Kind-King method); and Sodium and Potassium Content (flame-photometer).

[2] = 20 mg/kg oral
Description: Blood was drawn from branchial vein of dogs, vein of ear of rabbits and carotic artery of rats after slaughter. Urine was collected with urine bladder catheter for rabbits and metabolic cages for rats. Gathering bile was performed with biliary duct cannulation without anesthesia.

rats [3] = test system: rats; remark: listed apart in the source
Description: Rats were sacrificed under anesthesia with ether. After observation of gross appearance of all the organs, extraction and weighing were made on spleen, lung, liver, adrenal, heart, thymus, kidney, testicles, hypophysis and thyroid. In addition to the above organs, femoral bone marrow, lymph node, stomach, intestine, pancreas, urinary bladder, prostate and central nervous system were removed and fixed in 10% formaline solution.

blood pressure of SHR = experiment: Antihypertensive effect by repeated administration, SHR; format: in vivo, rat (spontaneously hypertensive rats
Description: The effect was determined through a direct cannulation by using male SHRs aged 25 to 30 weeks and weighing about 300 g. […] Blood pressures were measured twice a day, just before and 4 hours after the administration with blood pressure recorder 8002 made by W+W Electronic.

COC(=O)[C@H]1[C@H]2C[C@@H]3c4[nH]c5cc(OC)ccc5c4CCN3C[C@H]2C[C@@H](O)[C@@H]1OC [MR, methylreserpate]
ALP (rats [1]; 25.0 mg/kg, 30 days): 17.0±0.93 K.A.U.
BUN (rats [1]; 25.0 mg/kg, 30 days): 15.7 ± 0.77 mg/dL
GOT (rats [1]; 25.0 mg/kg, 30 days): 92.2±8.74 K.U.
Glucose (rats [1]; 25.0 mg/kg, 30 days): 155.4 ± 6.06 mg/dL
Total Protein (rats [1]; 25.0 mg/kg, 30 days): 6.65 ± 0.08 g/dL
ALP (rats [1]; 50.0 mg/kg, 30 days): 18.7±1.39 K.A.U.
Total Protein (rats [1]; 50.0 mg/kg, 30 days): 6.76 ± 0.18 g/dL
BUN (rats [1]; 50.0 mg/kg, 30 days, P<0.05): 17.2 ± 0.56 mg/dL
GOT (rats [1]; 50.0 mg/kg, 30 days, P<0.05): 117.1±10.48 K.U.
Glucose (rats [1]; 50.0 mg/kg, 30 days, P<0.05): 113.7 ± 5.25 mg/dL
ALP (rats [1]; 100.0 mg/kg, 30 days): 22.7±2.91 K.A.U.
Total Protein (rats [1]; 100.0 mg/kg, 30 days): 6.57 ± 0.28 g/dL
BUN (rats [1]; 100.0 mg/kg, 30 days, P<0.05): 17.5 ± 1.01 mg/dL
GOT (rats [1]; 100.0 mg/kg, 30 days, P<0.05): 114.9±7.02 K.U.
Glucose (rats [1]; 100.0 mg/kg, 30 days, P<0.05): 100.5 ± 8.60 mg/dL
serum glucose (rats [1]; 50 and 100 mg/kg groups): decrease of glucose value
other serum biochemistry (rats [1]; all determinations other than glucose): all within the scope of normal values
ALP (rats [1]; rat, in vivo): 18.8±10.82
BUN (rats [1]; rat, in vivo): 14.6±0.35
GOT (rats [1]; rat, in vivo): 80.4±7.55
Glucose (rats [1]; rat, in vivo): 149.3±3.36
Total Protein (rats [1]; rat, in vivo): 7.06±0.09
Area under the Curve of MR Content in Serum [2]: 63.6
Absolute weight Brain (rats [3]; 25.0 mg/kg): 2.26 ± 0.04 g
Absolute weight Hypophysis (rats [3]; 25.0 mg/kg): 11.98 ± 0.44 mg
Absolute weight Kidney (rats [3]; 25.0 mg/kg): 1.20 ± 0.04 g
Absolute weight Liver (rats [3]; 25.0 mg/kg): 10.00 ± 0.47 g
Absolute weight Lung (rats [3]; 25.0 mg/kg): 2.35 ± 0.05 g
Absolute weight Spleen (rats [3]; 25.0 mg/kg): 0.71 ± 0.03 g
Absolute weight Thymus (rats [3]; 25.0 mg/kg): 0.54 ± 0.02 g
Absolute weight Thyroid (rats [3]; 25.0 mg/kg): 10.07 ± 0.55 mg
Absolute weight Salivary (rats [3]; 25.0 mg/kg, P<0.01): 0.26 ± 0.01 g
Absolute weight Brain (rats [3]; 50.0 mg/kg): 2.26 ± 0.03 g
Absolute weight Hypophysis (rats [3]; 50.0 mg/kg): 11.93 ± 0.48 mg
Absolute weight Kidney (rats [3]; 50.0 mg/kg): 1.19 ± 0.03 g
Absolute weight Liver (rats [3]; 50.0 mg/kg): 10.16 ± 0.33 g
Absolute weight Lung (rats [3]; 50.0 mg/kg): 2.26 ± 0.10 g
Absolute weight Spleen (rats [3]; 50.0 mg/kg): 0.73 ± 0.03 g
Absolute weight Thymus (rats [3]; 50.0 mg/kg): 0.58 ± 0.05 g
Absolute weight Thyroid (rats [3]; 50.0 mg/kg): 8.55 ± 0.50 mg
Absolute weight Salivary (rats [3]; 50.0 mg/kg, P<0.05): 0.26 ± 0.01 g
absolute weight of other organs (rats [3]; 100 mg/kg): decrease in weight of the other organs
Absolute weight Hypophysis (rats [3]; 100.0 mg/kg): 10.46 ± 0.17 mg
Absolute weight Spleen (rats [3]; 100.0 mg/kg): 0.56 ± 0.03 g
Absolute weight Thyroid (rats [3]; 100.0 mg/kg): 7.86 ± 0.38 mg
Absolute weight Kidney (rats [3]; 100.0 mg/kg, P<0.01): 0.89 ± 0.03 g
Absolute weight Salivary (rats [3]; 100.0 mg/kg, P<0.01): 0.21 ± 0.01 g
Absolute weight Thymus (rats [3]; 100.0 mg/kg, P<0.01): 0.39 ± 0.03 g
Absolute weight Brain (rats [3]; 100.0 mg/kg, P<0.05): 2.17 ± 0.04 g
Absolute weight Liver (rats [3]; 100.0 mg/kg, P<0.05): 7.55 ± 0.32 g
Absolute weight Lung (rats [3]; 100.0 mg/kg, P<0.05): 2.10 ± 0.06 g
absolute adrenal weight (rats [3]; 25 and 50 mg/kg groups): weight increase of adrenal
Absolute weight Brain (rats [3]; rat, in vivo): 2.28±0.03
Absolute weight Hypophysis (rats [3]; rat, in vivo): 10.60±0.41
Absolute weight Kidney (rats [3]; rat, in vivo): 1.17±0.05
Absolute weight Liver (rats [3]; rat, in vivo): 10.18±0.50
Absolute weight Lung (rats [3]; rat, in vivo): 1.32±0.12
Absolute weight Salivary (rats [3]; rat, in vivo): 0.27±0.01
Absolute weight Spleen (rats [3]; rat, in vivo): 0.69±0.03
Absolute weight Thymus (rats [3]; rat, in vivo): 0.63±0.04
Absolute weight Thyroid (rats [3]; rat, in vivo): 8.59±0.50
gross appearance of organs (rats [3]; rat, in vivo): no noteworthy change
blood pressure 24 hours after administration (blood pressure of SHR; oral, once a day over 2 weeks): had returned almost to the original level
disappearance of effect compared with RSP (blood pressure of SHR; rat, in vivo): disappears more rapidly than that of RSP
tolerance (blood pressure of SHR; repeated administration over 2 weeks): hardly giving tolerance
long lasting effect (blood pressure of SHR; single and repeated administration to SHRs): no long lasting effect
